Assay results from patent US9585885B2, “Substituted pyrido[2,3-g]quinazolines as dopamine D2 receptor agonists” (KISSEI PHARMACEUTICAL CO., LTD., priority 2012, dated 2017).

Experiments:
[1] = biological target: T1, human dopamine D2 receptor (Homo sapiens, UniProt P14416); test: Stimulating activities of human dopamine D2 receptor, [35S]GTPγS binding to hD2R#7 (HEK293) membrane homogenates; type: biochemical; conditions: [35S]GTPγS binding, membrane homogenates, mean value (n=2); read-out: EC50
T1 construct: expressed in transfected cells
Procedure: Identification Test of Stimulating Activities on Human Dopamine D2 Receptor
The cells, which were grown to confluence in 150 mm dishes (IWAKI), were harvested with isotonic buffer (50 mM Tris (Sigma), 2 mM ethylenediamine-tetraacetic acid (Invitrogen), and 125 mM sodium chloride (Wako Pure Chemicals), pH 7.4) and centrifuged at 1880×g and 4° C. for 10 minutes, and the cell pellets were then suspended in isotonic buffer. After being subjected to one cycle of freezing and thawing, the cells were centrifuged at 1880×g and 4° C. for 10 minutes, and the cell pellets were suspended in isotonic buffer. The cells were centrifuged at 1880×g and 4° C. for 10 minutes, and the cell pellets were suspended in isotonic buffer and homogenate buffer (10 mM sodium bicarbonate (Nacalai) and 5 mM ethylenediamine-tetraacetic acid, pH 7.5). The volume ratio of isotonic-to-homogenate buffer was 2. The cells were sonicated and centrifuged at 1880×g and 4° C. for 10 minutes, and the supernatants were ultracentrifuged at 80000×g and 4° C. for 30 minutes. The final cell pellets were suspended in homogenate buffer containing protease inhibitor cocktail (Nacalai) and stored at −80° C. until use. The protein concentration was determined using BCA Protein Assay Kit (Pierce) in accordance with the manufacturer's instructions.
The stimulating activities of human dopamine D2 receptor was determined by measuring the binding potential of [^35S]-guanosine 5′-[gamma-thio]triphosphate ([^35S]GTPγS, PerkinElmer) according to the method described by Newman-Tancredi A. et al. (Naunyn-Schmiedeberg's Arch Pharmacol, 1999, vol. 359, pp. 447-453) with a minor modification. Test compounds and dopamine hydrochloride (Fluka) as positive control were dissolved in dimethyl sulfoxide (CARLBIOCHEM), resulting in 30 mM. The both compounds were diluted with assay buffer (50 mM Tris, 100 mM sodium chloride, 5 mM magnesium chloride (Nacalai), 1 mM ethylenediamine-tetraacetic acid, 1 mM dithiothreitol (Wako Pure Chemicals), 10 μM guanosine diphosphate (Wako Pure Chemicals) and 0.5% bovine serum albumin (Sigma), pH 7.4) to a final concentration of 100 pM (only test compounds), 1 nM, 10 nM, 100 nM, 1 μM, 10 μM and 100 μM (only dopamine hydrochloride). The above membrane homogenates and [^35S]GTPγS were diluted with assay buffer to a final concentration of 0.06 mg/mL and 0.6 nM, respectively. The serial diluted compounds (50 μL), the diluted membrane homogenates (50 μL) and the diluted [^35S]GTPγS (50 μL) were mixed on multi-screen 96-well plate (Millipore) and shaken lightly at room temperature for 60 minutes. The reaction was terminated by vacuum filtration with three times washes of ice-cold wash buffer (50 mM Tris, 100 mM sodium chloride, 5 mM magnesium chloride, and 1 mM ethylenediamine-tetraacetic acid, pH 7.4). After drying the bottoms of the plate at 60° C., MicroScinti-40 (PerkinElmer) (30 μL) was added in the plate. The tops of the plate were sealed by TopSeal-A (PerkinElmer), and the radioactivity was determined in a TopCount NXT (registered mark)(PerkinElmer) after shaking lightly for 5-10 minutes. The data was analyzed by nonlinear regression and sigmoidal dose-response curve fitting using GraphPad PRISM 4.0 (GraphPad Software), and values of EC50 (concentration of the compound producing half the maximal effect of the compound) were calculated. The data was presented as mean value (n=2).

[2] = biological target: T2, human serotonin 5-HT2B receptor (Homo sapiens, UniProt P41595); test: Stimulating activities of human serotonin 5-HT2B receptor, intracellular calcium in forced expression HEK293 cells; type: cell-based; conditions: intracellular calcium concentration, mean value (n=2)
T2 construct: expressed in transfected cells; host or cells: HEK293 (transient transfection)
Procedure: Identification Test of Stimulating Activities on Human Serotonin 5-HT2B Receptor
Mostly confluent HEK293 cells were washed with PBS, followed by exfoliation with 0.05% trypsin-EDTA and the cells were suspended in D-MEM liquid medium (phenol red-free, low glucose, pyruvic acid were contained) containing fetal bovine serum (final concentration: 10%) and GlutaMax (registered mark) I (final concentration: 2 mM). The suspension was scattered at 5×10^4 cells/100 μL/well on poly-D-lysine-coated 96-well microplate (BD BioCoat (registered mark)). The scattered cells were cultured in 5% CO2 incubator at 37° C. Human serotonin 5-HT2B receptor expression plasmid was transfected in that cells according to the procedure seeing below.
Human serotonin 5-HT2B receptor expression plasmid and Lipofectamine (registered mark) 2000 (Invitrogen) were diluted to 0.008 g/L and 0.016 g/L each other with OPTI-MEM (registered mark) I Reduced-Serum Medium and incubated at room temperature. After incubation, the human serotonin 5-HT2B receptor expression plasmid-diluted liquid and Lipofectamine (registered mark) 2000-diluted liquid were mixed at an equal volume and incubated at room temperature to form a complex. The complex was dispensed at 50 μL/well on the cells prepared above. The cells were incubated in 5% CO2 incubator at 37° C. for 2 days. After incubation, the cells were used as human serotonin 5-HT2B receptor forced expression cells for measurement of intracellular calcium concentration.
The stimulating activities of human serotonin 5-HT2B receptor was determined by measuring of intracellular calcium concentration. The 30 mM dimethyl sulfoxide (DMSO) solution contained test compounds or serotonin hydrochloride (Sigma) as positive control, was diluted with assay buffer ((HBSS), 20 mM HEPES, 1.3 mM calcium chloride, 0.5 mM magnesium chloride and 0.4 mM magnesium sulfate were contained, pH7.4) to appropriate concentration.
The forced expression cells were washed with assay buffer, and 100 μL/well of fluorescent calcium indicator (Fluo-4 NW Calcium Assay Kit) was added and incubated in 5% CO2 incubator at 37° C. After incubation, 50 μL/well of each test compound was added, and the concentration of intracellular calcium was measured as fluorescent signal with FlexStation (registered mark) II (Molecular Devices). The data was analyzed by nonlinear regression and sigmoidal dose-response curve fitting using GraphPad PRISM 4.0, and values of EC50 (concentration of the compound producing half the maximal effect of the compound) were calculated. The data was presented as mean value (n=2).

[3] = test system: unilateral 6-hydroxydopamine-lesioned hemi-Parkisonian rats; test: Contralateral rotational behavior in unilateral 6-hydroxydopamine-lesioned hemi-parkinsonian rats; type: in vivo, rat; conditions: orally 10 mg/kg, mean value; for Total number of rotations: contralateral rotations up to 24 hours after administration; for Duration: measured up to 24 hours after administration, duration of rotational response
Procedure: 6-OHDA was dissolved at 2 mg/mL in a physiolosical saline solution containing 0.2% L-ascorbic acid. Desipramine was dissolved at 10 mg/mL in a physiolosical saline solution in a hot-water bath. Apomorphine was dissolved at 0.1 mg/mL in a physiolosical saline solution. Ropinirole was dissolved in distilled water. Test compounds were dissolved in a solution containing 2% DMA, 100 or 200 mol % hydrochloric acid, and 98% of a 0.5% methyl cellulose solution. […] (Eur J Pharmacol, 2000, vol. 408, P. 249-255) with a minor modification. Male Sprague-Dawley rats (6-weeks-old, Charles River Laboratories Japan Inc.) were anaesthetized with intraperitoneal somnopentyl (45 mg/kg) injection and placed in a stereotaxic frame (Narishige). In order to prevent 6-OHDA-induced damage of noradrenergic neurons, desipramine (25 mg/kg) was intraperitoneally injected 30 minutes before the 6-OHDA injection. After the bregma identification via a middle calvarial incision, the skull was drilled using a dental drill at the site of 6-OHDA injection. The lesion was made by injecting 6-OHDA (8 μg in 4 μL at a speed of 1 μL/minute) unilaterally into the left medial forebrain bundle by using a injection cannula (30 gauge needle) connected to a microsyringe (Hamilton) (the lesion coordinates; A/P −2.5 mm, L/M −1.8 mm, and V/D −8.0 mm, from the bregma point and surface of the skull). The cannula was carefully removed from the animal after keeping placed on the lesion site for 5 minutes. The skull was filled its hole with dental cement, disinfected, and the scalp incision was surgically sutured. Animals recovered from anesthesia were housed as usual until the day of the experiment. Three weeks after the lesion, rats were tested on the basis of their contralateral rotational behavior (single rotation was defined as a 360° turn) in response to 0.1 mg/kg apomorphine given subcutaneously. For behavioral observation, rats were placed in plastic cylinders of a diameter of 30 cm, and its contralateral rotational behaviors were videotaped and quantified by rat-rotation auto counting system R-RACS (Kissei Wellcom). On the experimental day, animals were fasted overnight, and test compounds were orally administrated at doses of 10 mg/kg. The drug potency was measured until up to 24 hours after administration as the number of contralateral rotation. […] Total number of rotations and the duration of the response in experimental period were presented as mean value. As comparative example, ropinirole as non-ergot dopamine D2 receptor agonist, was examined in a similar fashion.

T1 sequence (P14416 whole entry): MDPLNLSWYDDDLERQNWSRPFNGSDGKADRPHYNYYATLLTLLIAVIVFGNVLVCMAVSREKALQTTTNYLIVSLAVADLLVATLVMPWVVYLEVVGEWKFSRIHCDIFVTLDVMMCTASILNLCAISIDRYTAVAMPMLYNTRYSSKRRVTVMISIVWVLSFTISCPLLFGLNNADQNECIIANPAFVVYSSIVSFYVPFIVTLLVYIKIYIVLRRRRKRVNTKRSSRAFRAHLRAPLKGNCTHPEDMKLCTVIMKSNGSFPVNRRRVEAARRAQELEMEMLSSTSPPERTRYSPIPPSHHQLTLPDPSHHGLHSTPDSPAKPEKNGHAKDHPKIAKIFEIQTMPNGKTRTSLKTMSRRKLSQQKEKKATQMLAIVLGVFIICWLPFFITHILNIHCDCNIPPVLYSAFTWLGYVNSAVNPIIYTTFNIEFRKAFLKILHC
T2 sequence (P41595 whole entry): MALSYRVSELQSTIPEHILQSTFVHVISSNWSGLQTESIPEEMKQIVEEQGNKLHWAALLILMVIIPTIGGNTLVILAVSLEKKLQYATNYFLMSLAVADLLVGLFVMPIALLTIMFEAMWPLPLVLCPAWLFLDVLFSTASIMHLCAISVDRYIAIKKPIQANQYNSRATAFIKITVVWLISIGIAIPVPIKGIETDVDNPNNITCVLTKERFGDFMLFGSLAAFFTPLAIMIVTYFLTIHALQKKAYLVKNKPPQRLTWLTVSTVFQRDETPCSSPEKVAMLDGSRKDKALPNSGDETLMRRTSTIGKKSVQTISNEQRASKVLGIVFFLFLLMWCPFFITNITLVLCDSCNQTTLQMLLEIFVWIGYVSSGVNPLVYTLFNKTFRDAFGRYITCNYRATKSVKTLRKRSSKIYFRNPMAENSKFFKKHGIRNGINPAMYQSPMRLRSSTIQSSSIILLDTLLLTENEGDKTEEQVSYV

Row | SMILES | EC50 [1] [nM] | EC50 [2] [nM] | Total number of rotations [3] | Duration [3] [minuets]
1 | CCCN1C[C@@H](NC(=O)N(CCc2ccccc2)CCN(C)C)C[C@@H]2Cc3nc(N)ncc3C[C@H]21 (relative stereo) [Compound 1-23, 3-[(5aR*,8S*,9aR*)-2-amino-6-propyl-5,5a,6,7,8,9,9a,10-octahydropyrido[2,3-g]quinazolin-8-yl]-1-[2-(dimethylamino)ethyl]-1-(2-phenylethyl)urea] | 223 | > 10000 | 9184.0 | 870.0
2 | CCCN(CCN(C)C)C(=O)N[C@H]1C[C@@H]2Cc3nc(N)ncc3C[C@H]2N(CCC)C1 [Compound 1-2, 3-[(5aR,8S,9aR)-2-amino-6-propyl-5,5a,6,7,8,9,9a,10-octahydropyrido[2,3-g]quinazolin-8-yl]-1-[2-(dimethylamino)ethyl]-1-propylurea] | 252 | > 10000 | 2580.0 | 307.5
